# Assay results from patent publication US5525626A (priority 1989, dated 1996).
# Experiments:
# [1] = tested on: LNCap cells; assay: cell growth in combination with testosterone; assay type: cell-based, human; conditions: FIG. 9
# [2] = tested on: U 178 MG, TP 410 N, TP 242 MG, TP 336 MG and A 431 cells; conditions: coumarin in the corresponding concentrations
# Description: (§1) The neuroblastoma cell line and the three glioblastoma cell lines were cultivated in Ham's F10 medium enriched with 10% fetal calf serum (FCS) and the usual quantity of penicillin, streptomycin (Pen/Strep) and glutamine. The epidermoidal cell line was cultivated in modified Eagle's Medium (MEM), likewise enriched with 10% (FCS) and the usual quantity of glutamine and Pen/Strep.
# Untreated cells served as a control. Subsequently, the cells were incubated for 8 hours with ^3 H-thymidine. The radioactivity absorbed by the cells was measured in the usual way.
# [3] = tested on: malignant cell growth; conditions: cited from earlier work
# [4] = tested on: U 178 MG, TP 410 N, TP 242 MG, TP 336 MG and A 431 cells; assay: growth curves of five tumor cell lines, comparison with coumarin; assay type: cell-based, human; conditions: corresponding concentrations, up to 12 days
# Description: as §1
# In each case 5×10^4 cells were plated out in T25 bottles, the untreated cells being incubated in analogous conditions as control. The cell count was microscopically determined after 3, 5, 7, 10 and 12 days.
# [5] = tested on: T4 lymphocytes; conditions: low concentrations; cited from earlier work
smiles,measurement,setting,value
"O=c1oc2ccccc2cc1O [3-OH-1,2-BP, reference compound]","effect on cell growth, comparison compound",[1],essentially ineffective
"O=c1ccc2ccccc2o1 [coumarin, 1,2-Benzopyrone, reference compound]",difference from control in pre-trial,[2],no significant difference could be observed
same,malignant cell growth,[3]; cell cultures and animal experiments,inhibits malignant cell growth in cell cultures and in animal experiments
same,side-effects in mammals,[3]; compared with biological activity,side-effects in the case of mammals are to be disregarded compared with biological activity
same,growth-inhibiting activity (growth curve) versus control,[4],no significant difference could be observed
O=P1(N(CCCl)CCCl)NCCCO1 (stereo not drawn) [cyclophosphamide],biological activity of T4 lymphocytes,[5],inhibits the biological activity of T4 lymphocytes
